Reference: patent publication US5304379A, “Method for reducing sensitization or irritation in transdermal drug delivery and means therefor” (priority 1992, dated 1994)

Assays:
[1] = system: monoamine oxidase activity; format: cell-based
From the text: Therefore, the metabolism of chlorpheniramine can also be inhibited in the skin or mucosa, by the addition of metabolic modulators such as the phenyl alcohols disclosed with reference to propranolol.

[2] = Patch test (elicitation) in a human subject sensitized to propranolol
Procedure: A human subject suspected of being sensitized to propranolol was patch tested for 16 hours with 0.5% propranolol in a 2% hydroxyethyl cellulose (HEC) gel buffered to a pH of 8.5 with 0.05M TrisHC1.
The same subject was patch tested several days later with the following compositions in 2% HEC gel buffered to a pH of 8.5 with 0.05M TrisHC1: 0.5% propranolol; 0.5% tranylcypromine; 10% 2-phenyl-1-ethanol; 0.5% propranolol with 0.5% tranylcypromine; and 0.5% propranolol with 10% 2-phenyl-1-ethanol. Each composition was placed simultaneously at different sites on the subject's volar forearm.

[3] = system: propranolol metabolism in human keratinocytes; details: tritiated propranolol 1.5×10^-7 M, several days, metabolites by TLC, vs control incubation without tranylcypromine
Procedure: At the end of several days, the metabolites resulting from propranolol ,metabolism were identified and quantitated by thin layer chromatography.
Human keratinocytes were incubated in tritiated propranolol (12.5 Ci/mmole, final concentration 1.5×10^-7 M) and a range of concentration of each phenyl alcohol. Quadruplicates were used at each concentration. At six days, the metabolites resulting from propranolol deamination were extracted (ether, pH of 3) and the radioactivity of the extract was measured by scintillation counting. The concentration of each phenyl alcohol studied, which inhibits 50 percent of propranolol metabolism (MI50) was estimated by means of the Litchfield and Wilcoxon method.

[4] = system: monoamine oxidase-dependent tetracaine metabolism; test: In vitro metabolism of tetracaine (methods of the propranolol studies)
[5] = Patch test (elicitation) in human subjects sensitized to tetracaine, erythema by Minolta Chromameter; format: in vivo; details: 21 hours after removal
Procedure: Testing occurred over a period of several weeks where a positive control composition was placed on the skin along with one of the tetracaine/phenyl alcohol compositions and the intensity of the skin reaction obtained, was observed. This was repeated on different areas of the arm until all of the compositions were tested. Each formulation remained on the skin for a period of three hours and the reactions were observed during the 16-24 hour period after removal of the formulation. Erythema or redness of the reaction site was quantitated with a Minolta Chromameter. In all instances, the intensity of the reaction caused by the tetracaine/phenyl alcohol composition, was less than that caused by tetracaine alone (positive control). Thus it was established that the presence of phenyl alcohols reduced the elicitation reaction as compared to the 2% tetracaine gel.
The best results were obtained using 2-phenyl-1-ethanol and 3-phenyl-1-propanol. On a scale of 0-100, with 0 being 0% inhibition (2% tetracaine gel/positive control) and 100 being 100% inhibition (placebo gel/negative control), the following data was obtained 21 hours after removal of the formulations: […]

[6] = Induction of contact sensitization by patches in groups of 100 human subjects; format: in vivo; details: tetracaine/2-phenyl-1-ethanol patches vs tetracaine-only patches, 100 subjects each
Procedure: The components were blended in an internal mixing bowl at 100° C. and after approximately one hour, the mixture was extruded between two release substrates. One substrate was peeled away and a backing member was applied in its place.
Similar patches were manufactured without the presence of 2-phenyl-1-ethanol.
Two groups of 100 human subjects each were then tested. They were each tested by application of a system, for a three hour duration, once every 8 weeks.
100 subjects were given the patches containing only tetracaine. […] The other 100 subjects were given the patches containing both tetracaine and 2-phenyl-1-ethanol.

[7] = 0.5% alone in 2% HEC gel pH 8.5, volar forearm, one day later, propranolol-sensitized subject
[8] = 2.5 weight % inhibitor with 2% tetracaine gel
[9] = 5 weight % inhibitor with 2% tetracaine gel
[10] = 10 weight % inhibitor with 2% tetracaine gel

| Compound | skin reaction at patch site [2, 7] | inhibition of monoamine oxidase-dependent tetracaine metabolism [4] | Percent Inhibition of Reaction [5, 8] | Percent Inhibition of Reaction [5, 9] | Percent Inhibition of Reaction [5, 10] | also measured |
| --- | --- | --- | --- | --- | --- | --- |
| CN(C)CCC(c1ccc(Cl)cc1)c1ccccn1 (stereo not shown) [chlorpheniramine] | – | – | – | – | – | dependence of in vitro skin metabolism on monoamine oxidase activity [1]: largely dependent upon monoamine oxidase activity |
| N[C@@H]1C[C@H]1c1ccccc1 (relative stereo) [tranylcypromine] | No reaction | could be inhibited | – | – | – | inhibition of propranolol metabolism [3]: inhibited |
| CCCCNc1ccc(C(=O)OCCN(C)C)cc1 [tetracaine] | – | – | – | – | – | portion of metabolism that is monoamine oxidase-dependent [4]: 25% |
| OCCCc1ccccc1 [3-Phenyl-1-propanol, 3-phenyl-1-propanol] | – | – | 37% | 100% | 100% | – |
| CC(C)NCC(O)COc1cccc2ccccc12 (stereo not shown) [propranolol] | strong reaction | – | – | – | – | skin reaction after patch test ([2]; 0.5% in 2% HEC gel pH 8.5, 16 hours patch, one to two days later): a reaction which was characteristic of a contact sensitization reaction |
| OCCc1ccccc1 [2-phenyl-1-ethanol] | – | could be inhibited | 52% | 52% | 77% | skin reaction at patch site ([2]; human, in vivo, pH 8.5): No reaction; reduction of the incidence of sensitization [6]: about 70% |
